ChEMBL document CHEMBL3856199, “Melanoma-targeted delivery system (part 2): Synthesis, radioiodination and biological evaluation in B16F0 bearing mice” (Eur J Med Chem, 2016)

Key:
[1] = Drug uptake in intestine of C57BL/6J mouse implanted with mouse B16F0 cells at 3.7 MBq, iv measured at 1 hr post injection by gamma counting analysis; format: ADME, organism-based; settings: in vivo
[2] = test system: Mus musculus; assay: Toxicity in C57BL/6J mouse assessed as lethargy at 3.7 MBq, iv measured up to 72 hrs post injection; format: organism-based; settings: in vivo
[3] = Drug uptake in tumor of C57BL/6J mouse implanted with mouse B16F0 cells at 3.7 MBq, iv measured at 3 hrs post injection by gamma counting analysis; format: ADME, organism-based, Neoplasm; settings: in vivo
[4] = Ratio of drug uptake in tumor to blood in C57BL/6J mouse implanted with mouse B16F0 cells at 3.7 MBq, iv measured at 24 hrs post injection; format: ADME, organism-based
[5] = Ratio of drug uptake in tumor to muscle in C57BL/6J mouse implanted with mouse B16F0 cells at 3.7 MBq, iv measured at 3 hrs post injection; format: ADME, organism-based; settings: in vivo
[6] = Drug uptake in kidney of C57BL/6J mouse implanted with mouse B16F0 cells at 3.7 MBq, iv measured at 1 hr post injection by gamma counting analysis; format: ADME, organism-based; settings: in vivo
[7] = Drug uptake in eyes of C57BL/6J mouse implanted with mouse B16F0 cells at 3.7 MBq, iv measured at 6 hrs post injection by gamma counting analysis; format: ADME, organism-based, Eye; settings: in vivo
[8] = Drug uptake in bladder of C57BL/6J mouse implanted with mouse B16F0 cells at 3.7 MBq, iv measured at 1 hr post injection by scintigraphic imaging analysis; format: ADME, organism-based, Urinary bladder; settings: in vivo
[9] = Ratio of drug uptake in tumor to muscle in C57BL/6J mouse implanted with mouse B16F0 cells at 3.7 MBq, iv measured at 24 hrs post injection; format: ADME, organism-based; settings: in vivo
[10] = Drug uptake in stomach of C57BL/6J mouse implanted with mouse B16F0 cells at 3.7 MBq, iv measured at 72 hrs post injection by gamma counting analysis; format: ADME, organism-based; settings: in vivo
[11] = Drug uptake in muscles of C57BL/6J mouse implanted with mouse B16F0 cells at 3.7 MBq, iv measured at 6 hrs post injection by gamma counting analysis; format: ADME, organism-based, Muscle tissue; settings: in vivo
[12] = Drug uptake in intestine of C57BL/6J mouse implanted with mouse B16F0 cells at 3.7 MBq, iv measured at 6 hrs post injection by gamma counting analysis; format: ADME, organism-based; settings: in vivo
[13] = Drug uptake in muscles of C57BL/6J mouse implanted with mouse B16F0 cells at 3.7 MBq, iv measured at 3 hrs post injection by gamma counting analysis; format: ADME, organism-based, Muscle tissue; settings: in vivo
[14] = Drug uptake in intestine of C57BL/6J mouse implanted with mouse B16F0 cells at 3.7 MBq, iv measured at 72 hrs post injection by gamma counting analysis; format: ADME, organism-based; settings: in vivo
[15] = Drug uptake in intestine of C57BL/6J mouse implanted with mouse B16F0 cells at 3.7 MBq, iv measured at 3 hrs post injection by gamma counting analysis; format: ADME, organism-based; settings: in vivo
[16] = Drug uptake in eyes of C57BL/6J mouse implanted with mouse B16F0 cells at 3.7 MBq, iv measured at 1 hr post injection by gamma counting analysis; format: ADME, organism-based, Eye; settings: in vivo
[17] = Drug uptake in tumor of C57BL/6J mouse implanted with mouse B16F0 cells at 3.7 MBq, iv measured at 1 hr post injection by gamma counting analysis; format: ADME, organism-based, Neoplasm; settings: in vivo
[18] = Ratio of drug uptake in tumor to blood in C57BL/6J mouse implanted with mouse B16F0 cells at 3.7 MBq, iv measured at 1 hr post injection; format: ADME, organism-based
[19] = test system: Mus musculus; assay: Toxicity in C57BL/6J mouse assessed as rough coat at 3.7 MBq, iv measured up to 72 hrs post injection; format: organism-based; settings: in vivo
[20] = Drug uptake in liver of C57BL/6J mouse implanted with mouse B16F0 cells at 3.7 MBq, iv measured at 24 hrs post injection by gamma counting analysis; format: ADME, organism-based; settings: in vivo
[21] = Ratio of drug uptake in tumor to muscle in C57BL/6J mouse implanted with mouse B16F0 cells at 3.7 MBq, iv measured at 72 hrs post injection; format: ADME, organism-based; settings: in vivo
[22] = Drug uptake in liver of C57BL/6J mouse implanted with mouse B16F0 cells at 3.7 MBq, iv measured at 6 hrs post injection by gamma counting analysis; format: ADME, organism-based; settings: in vivo
[23] = Drug uptake in blood of C57BL/6J mouse implanted with mouse B16F0 cells at 3.7 MBq, iv measured at 1 hr post injection by gamma counting analysis; format: ADME, organism-based; settings: in vivo
[24] = Drug uptake in eyes of C57BL/6J mouse implanted with mouse B16F0 cells at 3.7 MBq, iv measured at 72 hrs post injection by gamma counting analysis; format: ADME, organism-based, Eye; settings: in vivo
[25] = Drug uptake in blood of C57BL/6J mouse implanted with mouse B16F0 cells at 3.7 MBq, iv measured at 3 hrs post injection by gamma counting analysis; format: ADME, organism-based; settings: in vivo
[26] = Drug uptake in blood of C57BL/6J mouse implanted with mouse B16F0 cells at 3.7 MBq, iv measured at 6 hrs post injection by gamma counting analysis; format: ADME, organism-based; settings: in vivo
[27] = Drug uptake in muscles of C57BL/6J mouse implanted with mouse B16F0 cells at 3.7 MBq, iv measured at 24 hrs post injection by gamma counting analysis; format: ADME, organism-based, Muscle tissue; settings: in vivo
[28] = Drug uptake in eyes of C57BL/6J mouse implanted with mouse B16F0 cells at 3.7 MBq, iv measured at 3 hrs post injection by gamma counting analysis; format: ADME, organism-based, Eye; settings: in vivo
[29] = Ratio of drug uptake in tumor to muscle in C57BL/6J mouse implanted with mouse B16F0 cells at 3.7 MBq, iv measured at 1 hr post injection; format: ADME, organism-based; settings: in vivo
[30] = Drug uptake in muscles of C57BL/6J mouse implanted with mouse B16F0 cells at 3.7 MBq, iv measured at 72 hrs post injection by gamma counting analysis; format: ADME, organism-based, Muscle tissue; settings: in vivo
[31] = Drug uptake in liver of C57BL/6J mouse implanted with mouse B16F0 cells at 3.7 MBq, iv measured at 1 hr post injection by gamma counting analysis; format: ADME, organism-based; settings: in vivo
[32] = Ratio of drug uptake in tumor to blood in C57BL/6J mouse implanted with mouse B16F0 cells at 3.7 MBq, iv measured at 3 hrs post injection; format: ADME, organism-based
[33] = Drug uptake in stomach of C57BL/6J mouse implanted with mouse B16F0 cells at 3.7 MBq, iv measured at 6 hrs post injection by gamma counting analysis; format: ADME, organism-based; settings: in vivo
[34] = Drug uptake in kidney of C57BL/6J mouse implanted with mouse B16F0 cells at 3.7 MBq, iv measured at 3 hrs post injection by gamma counting analysis; format: ADME, organism-based; settings: in vivo
[35] = Drug uptake in liver of C57BL/6J mouse implanted with mouse B16F0 cells at 3.7 MBq, iv measured at 3 hrs post injection by gamma counting analysis; format: ADME, organism-based; settings: in vivo
[36] = Drug uptake in eyes of C57BL/6J mouse implanted with mouse B16F0 cells at 3.7 MBq, iv measured at 24 hrs post injection by gamma counting analysis; format: ADME, organism-based, Eye; settings: in vivo
[37] = Drug uptake in stomach of C57BL/6J mouse implanted with mouse B16F0 cells at 3.7 MBq, iv measured at 24 hrs post injection by gamma counting analysis; format: ADME, organism-based; settings: in vivo
[38] = Drug uptake in kidney of C57BL/6J mouse implanted with mouse B16F0 cells at 3.7 MBq, iv measured at 24 hrs post injection by gamma counting analysis; format: ADME, organism-based; settings: in vivo

Drug uptake [1]	Drug uptake [3]	Kp at 24 h [4]	Ratio [5]	Drug uptake [6]	Drug uptake [7]	Drug uptake [8]	Ratio [9]	Drug uptake [10]	Drug uptake [11]	Drug uptake [12]	Drug uptake [13]	Drug uptake [14]	Drug uptake [15]	Drug uptake [16]	Drug uptake [17]	Kp at 1 h [18]	Drug uptake [20]	SMILES	Activity [2]	Activity [19]	other results
1.62 % ID/g	1.66 % ID/g	7.24	3.75	2.57 % ID/g	0.24 % ID/g	Active	24.35	0.2 % ID/g	0.11 % ID/g	0.77 % ID/g	1.06 % ID/g	0.24 % ID/g	1.27 % ID/g	1.02 % ID/g	2.79 % ID/g	0.89	0.08 % ID/g	O=c1[nH]c(=O)n([C@H]2C[C@H](O)[C@@H](CO)O2)cc1[125I]	Non-Toxic	Non-Toxic	Ratio [21]: 14.58; Drug uptake [22]: 0.24 % ID/g; Drug uptake [23]: 3.17 % ID/g; Drug uptake [24]: 0.03 % ID/g; Drug uptake [25]: 1.49 % ID/g; Drug uptake [26]: 0.52 % ID/g; Drug uptake [27]: 0.02 % ID/g; Drug uptake [28]: 0.43 % ID/g; Ratio [29]: 2.96; Drug uptake [30]: 0.03 % ID/g; Drug uptake [31]: 1.3 % ID/g; Kp at 3 h [32]: 1.14; Drug uptake [33]: 4.19 % ID/g; Drug uptake [34]: 1.08 % ID/g; Drug uptake [35]: 0.63 % ID/g; Drug uptake [36]: 0.04 % ID/g; Drug uptake [37]: 0.62 % ID/g; Drug uptake [38]: 0.12 % ID/g
2.51 % ID/g	2.75 % ID/g	5.63	5.59	1.99 % ID/g	0.28 % ID/g	Active	18.24	0.23 % ID/g	0.19 % ID/g	1.24 % ID/g	0.51 % ID/g	0.27 % ID/g	2.88 % ID/g	0.78 % ID/g	2.23 % ID/g	1.11	0.13 % ID/g	CCN(CC)CCNC(=O)c1cnc2cc(NC(=O)COc3ccc(SSCCOC(=O)O[C@H]4C[C@H](n5cc([125I])c(=O)[nH]c5=O)O[C@@H]4CO)cc3)ccc2n1	Non-Toxic	Non-Toxic	Ratio [21]: 5.28; Drug uptake [22]: 0.47 % ID/g; Drug uptake [23]: 2.14 % ID/g; Drug uptake [24]: 0.08 % ID/g; Drug uptake [25]: 2.57 % ID/g; Drug uptake [26]: 1 % ID/g; Drug uptake [27]: 0.04 % ID/g; Drug uptake [28]: 0.85 % ID/g; Ratio [29]: 4.84; Drug uptake [30]: 0.06 % ID/g; Drug uptake [31]: 1.12 % ID/g; Kp at 3 h [32]: 1.07; Drug uptake [33]: 6.67 % ID/g; Drug uptake [34]: 1.89 % ID/g; Drug uptake [35]: 1.23 % ID/g; Drug uptake [36]: 0.09 % ID/g; Drug uptake [37]: 1.01 % ID/g; Drug uptake [38]: 0.2 % ID/g
